Entries after “also recorded” stand apart in the source; their conditions may differ.
Assays:
AsPC-1 cells [1] = test: Uptake of BPA and dipeptides in PEPT1 high expressing cells; assay type: cell-based, human; settings: PEPT1 high expressing AsPC1 cells
Experimental: The indicated cancer cell line (A) or FaDu cells (B) were harvested from culture and washed twice with PBS. Cell lines were adjusted to 2 million cells/ml in Hanks Balanced Salt Solution (HBSS). BPA or dipeptide boron compounds were added to cells at the final concentration of 2.5 mM in HBSS and the treated cells were incubated at 37° C. 5% CO2 for 2 hrs with shaking. The cells were collected by centrifugation; washed with cold PBS twice and reconstituted in 1 ml of cold PBS. Then, 50 µl of cell suspension was removed, pelleted, and lysed using RIPA buffer and the protein concentration was determined using BCA assay. The remaining 950 µl was used for boron compounds uptake measurements using ICP-OES.
To this end, 0.5 mL of concentrated nitric acid was added to each cell pellet in a 15 mL conical tube. The tubes were capped and placed in an oven set at 80° C. for 3 hours. […] The boron content in each sample was then measured on an Agilent 5110 ICP-OES using an Agilent SPS4 Autosampler for sample introduction.
The data was analyzed using Agilent’s ICP Expert Software, version 7.4.2.10790. Boron was measured axially at the 249.772 nm wavelength and the internal standard Beryllium was measured axially at the 313.042 nm wavelength. […] Once determined, the boron measurement for each sample was normalized to protein content and final boron uptake results were expressed as ng boron/mg protein. […]

CT26 xenografts [2] = test: BNCT tumor regression study, 6 minute irradiation; assay type: in vivo, BALB/c mice; settings: 900 mg/kg, 6 minutes irradiation
Experimental: In this experiment, CT26 xenografts in BALB/c mice were dosed with 400 mg/kg of BPA or 900 mg/kg of His-BPA or BPA-BPA. Following one (1) hour treatment time, mice were irradiated for 6 minutes at the Kyoto University Research Reactor (Kyoto, Japan) 1 set at 5 megawatts. Data are the means ± SD of 3 mice per treatment group. Tumors were measured for growth out to 36 days and examined for tumor presence at 40 days. BPA and control groups were sacrificed at day 18 due to excessive tumor growth.

FaDu subcutaneous tumors = test: Biodistribution of His-BPA, FaDu tumors in vivo; parameters: species or system female CB17 SCID mice; settings: His-BPA 4X higher dose than BPA-F
Experimental: In this experiment, biodistribution of His-BPA was evaluated in vivo using the following protocols. All animal studies were carried out following the “Guide for the Care and Use the Laboratory Animals,” 8th Ed. and Animal Welfare Act (USDA). Human hypopharyngeal squamous cell carcinoma FaDu cells were maintained in DMEM, supplemented with L-glutamine and 10% FBS.
Subcutaneous (s.c.) tumors were generated by injection of 2.5 × 10^6 cancer cells mixed at a 1:1 dilution with Matrigel (Corning Life Sciences) in the right flank of female CB17 SCID mice. Tumor sizes were determined by caliper measurements, and the tumor volume was calculated as width^2×Length/2, wherein width is the smallest dimension and length is the largest dimension. Tumors were allowed to grow untreated until they reached an approximate volume of 300 mm^3. At that point, animals were randomized and allocated to each treatment group based on tumor volume at the time of treatment initiation to ensure similar mean tumor size and variation in each group. Each group received a single dose of BPA at […] or a test article at […] via intravenous tail vein injection. […]
Furthermore, all compounds tested, with the exception of BPA were prepared as 80-100 mg/mL stocks. […] The digested tissues were analyzed by ICP OES to determine the boron concentration.

AsPC-1 cells [3] = test: Uptake inhibition by PEPT1 competitive inhibitor Gly-SAR; assay type: cell-based, human; settings: 0.8 mM test compound, with and without Gly-SAR
Experimental: (§1) In this experiment, uptake of BPA and dipeptide His-BPA (0.8 mM of each) was carried out in FaDu and ASPC-1 in the presence and absence of the indicated concentrations of PEPT1 dipeptide transporter competitive inhibitor Gly-SAR. Normalized boron uptake was determined as in FIG. 15.

FaDu cells = test: as above; assay type: cell-based, human
Experimental: as §1

Solubility = assay type: physicochemical
CT26 xenografts [4] = test: BNCT study, 12 or 6 minute irradiation at 5 MW; assay type: in vivo, BALB/c mice; settings: 800 mg/kg, 12 minutes irradiation at 5 MW, monitored to 22 days
Experimental: Following one (1) hour of treatment time, mice were irradiated for either 12 minutes (33(A)) or 6 minutes (33(B)) at the Kyoto University Research Reactor (Kyoto, Japan) 1 set at 5 megawatts. Data are the means ± SD of 3 mice per treatment group. Tumors were measured for growth out to 22 days.

[5] = test system: FaDu, Detroit-562, MeWo, HCC-1954, A549 and AsPC-1 human cancer xenograft models; test: Dose escalation of boron delivery, all tested xenograft models; assay type: in vivo, CB17 SCID mice; settings: 1000 mg/kg, 120 minutes
Experimental: Tumors were harvested 120 minutes following treatment and boron content determined by ICP-OES. Data are the means ± SD of 5 mice per treatment group.

- boron in the kidneys and pancreas compared to BPA-F (FaDu subcutaneous tumors): Significantly higher amounts of boron
- tumor boron compared to BPA at 200 mg/kg [5]: higher boron levels
SMILES: N[C@@H](Cc1c[nH]cn1)C(=O)N[C@@H](Cc1ccc(B(O)O)cc1)C(=O)O [His-BPA, Histidine-BPA]
- boron uptake compared to BPA (AsPC-1 cells [1]): to a higher level than BPA
- visual inspection and histological examination of the tumor area (CT26 xenografts [2]; one treated mouse): lack of tumor tissue and only scar tissue at the original tumor site
- tumor growth after BNCT (CT26 xenografts [2]; sustained out to 36 days): significant tumor regression
- effect of Gly-SAR on boron uptake (AsPC-1 cells [3]): dose dependent inhibitory effect
- boron signal in PEPT1 negative FaDu cells (FaDu cells; 0.8 mM): does deliver a boron signal
- effect of Gly-SAR on boron uptake (FaDu cells; 0.8 mM test compound, with and without Gly-SAR): no effect
- solubility (in words, compared to BPA) (Solubility): high solubility; also recorded: improved solubility
- tumor growth after BNCT (CT26 xenografts [4]): significant and similar growth inhibition, even regression
